Data reported in patent publication US12077503B2, “Substituted cyclic amides and their use as herbicides” (FMC CORPORATION, priority 2015, dated 2024).

Tests used:
Assay type in all cases: in vivo
[1] = tested on: barnyardgrass (Echinochloa crus-galli); assay: Test A postemergence; conditions: Echinochloa crus-galli, post-emergence, 240 h, read-out: Plant response rating, Barnyardgrass; for pest or weed control at 125 g/ha: 125 g ai/ha, Postemergence, visual injury after approximately 10 d, 0 to 100 scale where 0 is no effect and 100 is complete control; for pest or weed control at 500 g/ha: 500 g ai/ha, postemergence, visual injury, 0 to 100 scale (0 no effect, 100 complete control), approx. 10 d
In short: (§1)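 Each rating is a visual injury score from 0 to 100 given about 10 d after treatment, judged against untreated controls kept alongside in the greenhouse. In loam soil–sand blend, seeds got a preemergence directed soil spray, while postemergence plants were 2 to 10 cm tall at spraying.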

[2] = tested on: Galium (catchweed bedstraw, Galium aparine); assay: Test A postemergence; conditions: Galium, post-emergence, 240 h, read-out: Plant response rating, Galium; for pest or weed control at 125 g/ha: 125 g ai/ha, Postemergence, visual injury after approximately 10 d, 0 to 100 scale where 0 is no effect and 100 is complete control; for pest or weed control at 500 g/ha: 500 g ai/ha, postemergence, visual injury, 0 to 100 scale (0 no effect, 100 complete control), approx. 10 d
In short: as §1

Kochia (Kochia scoparia) [3] = assay: Test A postemergence; conditions: Bassia scoparia, post-emergence, 240 h, read-out: Plant response rating, Kochia; for pest or weed control at 125 g/ha: 125 g ai/ha, Postemergence, visual injury after approximately 10 d, 0 to 100 scale where 0 is no effect and 100 is complete control; for pest or weed control at 500 g/ha: 500 g ai/ha, postemergence, visual injury, 0 to 100 scale (0 no effect, 100 complete control), approx. 10 d
In short: as §1

[4] = tested on: pigweed (Amaranthus retroflexus); assay: Test A postemergence; conditions: Amaranthus retroflexus, post-emergence, 240 h, read-out: Plant response rating, Pigweed; for pest or weed control at 125 g/ha: 125 g ai/ha, Postemergence, visual injury after approximately 10 d, 0 to 100 scale where 0 is no effect and 100 is complete control; for pest or weed control at 500 g/ha: 500 g ai/ha, postemergence, visual injury, 0 to 100 scale (0 no effect, 100 complete control), approx. 10 d
In short: as §1

[5] = tested on: blackgrass (Alopecurus myosuroides); assay: Test A postemergence; conditions: Alopecurus myosuroides, post-emergence, 240 h, read-out: Plant response rating, Blackgrass; for pest or weed control at 125 g/ha: 125 g ai/ha, Postemergence, visual injury after approximately 10 d, 0 to 100 scale where 0 is no effect and 100 is complete control; for pest or weed control at 500 g/ha: 500 g ai/ha, postemergence, visual injury, 0 to 100 scale (0 no effect, 100 complete control), approx. 10 d
In short: as §1

[6] = tested on: ragweed (common ragweed, Ambrosia elatior); assay: Test A postemergence; conditions: Ambrosia artemisiifolia, post-emergence, 240 h, read-out: Plant response rating, Ragweed; for pest or weed control at 125 g/ha: 125 g ai/ha, Postemergence, visual injury after approximately 10 d, 0 to 100 scale where 0 is no effect and 100 is complete control; for pest or weed control at 500 g/ha: 500 g ai/ha, postemergence, visual injury, 0 to 100 scale (0 no effect, 100 complete control), approx. 10 d
In short: as §1

[7] = tested on: wheat (Triticum aestivum); assay: Test A postemergence; conditions: Triticum aestivum, post-emergence, 240 h, read-out: Plant response rating, Wheat; for plant injury at 125 g/ha: 125 g ai/ha, Postemergence, visual injury after approximately 10 d, 0 to 100 scale where 0 is no effect and 100 is complete control; for plant injury at 500 g/ha: 500 g ai/ha, postemergence, visual injury, 0 to 100 scale (0 no effect, 100 complete control), approx. 10 d
In short: as §1

corn (Zea mays) = assay: Test A postemergence; conditions: Zea mays, post-emergence, 240 h; for Corn plant response rating (crop injury, 0 = no effect, 100 = complete kill) at 125 g/ha: 125 g ai/ha, Postemergence, visual injury after approximately 10 d, 0 to 100 scale where 0 is no effect and 100 is complete control; for Corn plant response rating (crop injury, 0 = no effect, 100 = complete kill) at 500 g/ha: 500 g ai/ha, postemergence, visual injury, 0 to 100 scale (0 no effect, 100 complete control), approx. 10 d
In short: as §1

[8] = tested on: giant foxtail (Setaria faberii); assay: Test A postemergence; conditions: Setaria faberi, post-emergence, 240 h, read-out: Plant response rating, Foxtail, Giant; for pest or weed control at 125 g/ha: 125 g ai/ha, Postemergence, visual injury after approximately 10 d, 0 to 100 scale where 0 is no effect and 100 is complete control; for pest or weed control at 500 g/ha: 500 g ai/ha, postemergence, visual injury, 0 to 100 scale (0 no effect, 100 complete control), approx. 10 d
In short: as §1

[9] = tested on: ryegrass, Italian (Italian ryegrass, Lolium multiflorum); assay: Test A postemergence; conditions: Lolium multiflorum, post-emergence, 240 h, read-out: Plant response rating, Ryegrass, Italian; for pest or weed control at 125 g/ha: 125 g ai/ha, Postemergence, visual injury after approximately 10 d, 0 to 100 scale where 0 is no effect and 100 is complete control; for pest or weed control at 500 g/ha: 500 g ai/ha, postemergence, visual injury, 0 to 100 scale (0 no effect, 100 complete control), approx. 10 d
In short: as §1

[10] = tested on: barnyardgrass (Echinochloa crus-galli); assay: Test B flooded paddy test; conditions: Echinochloa crus-galli, 250 g ai/ha, Flood; 0 to 100 scale where 0 is no effect and 100 is complete control; read-out: Barnyardgrass plant response rating
In short: (§2)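 Compound goes directly into floodwater once pots are flooded 3 cm above soil, targeting plants at two leaves; the water depth is then held for the test duration. Plants sit 13–15 d in a greenhouse and are rated visually, 100 denoting complete control.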

[11] = tested on: ducksalad (Heteranthera limosa); assay: Test B flooded paddy test; conditions: Heteranthera limosa, 250 g ai/ha, Flood; 0 to 100 scale where 0 is no effect and 100 is complete control; read-out: Ducksalad plant response rating
In short: as §2

rice (Oryra sativa) = assay: Test B flooded paddy test; conditions: Oryza sativa, 250 g ai/ha, Flood; 0 to 100 scale where 0 is no effect and 100 is complete control; read-out: Rice plant response rating
In short: as §2

[12] = tested on: sedge, umbrella (small-flower umbrella sedge, Cyperus difformis); assay: Test B flooded paddy test; conditions: Cyperus difformis, 250 g ai/ha, Flood; 0 to 100 scale where 0 is no effect and 100 is complete control; read-out: Sedge, Umbrella plant response rating
In short: as §2

[13] = tested on: barnyardgrass (Echinochloa crus-galli); assay: Test A preemergence; conditions: Echinochloa crus-galli, pre-emergence, 240 h; for pest or weed control at 125 g/ha: 125 g ai/ha, Preemergence, visual injury rating after approximately 10 d, read-out: Barnyardgrass plant response rating (0 to 100 scale, 0 is no effect, 100 is complete control); for pest or weed control at 500 g/ha: 500 g ai/ha, preemergence, visual injury rating about 10 d after treatment, 0 to 100 scale (0 no effect, 100 complete control), read-out: Barnyardgrass plant response rating
In short: as §1

Kochia (Kochia scoparia) [14] = assay: Test A preemergence; conditions: Bassia scoparia, pre-emergence, 240 h; for pest or weed control at 125 g/ha: 125 g ai/ha, Preemergence, visual injury rating after approximately 10 d, read-out: Kochia plant response rating (0 to 100 scale, 0 is no effect, 100 is complete control); for pest or weed control at 500 g/ha: 500 g ai/ha, preemergence, visual injury rating about 10 d after treatment, 0 to 100 scale (0 no effect, 100 complete control), read-out: Kochia plant response rating
In short: as §1

[15] = tested on: pigweed (Amaranthus retroflexus); assay: Test A preemergence; conditions: Amaranthus retroflexus, pre-emergence, 240 h; for pest or weed control at 125 g/ha: 125 g ai/ha, Preemergence, visual injury rating after approximately 10 d, read-out: Pigweed plant response rating (0 to 100 scale, 0 is no effect, 100 is complete control); for pest or weed control at 500 g/ha: 500 g ai/ha, preemergence, visual injury rating about 10 d after treatment, 0 to 100 scale (0 no effect, 100 complete control), read-out: Pigweed plant response rating
[16] = tested on: ragweed (common ragweed, Ambrosia elatior); assay: Test A preemergence; conditions: Ambrosia artemisiifolia, pre-emergence, 240 h; for pest or weed control at 125 g/ha: 125 g ai/ha, Preemergence, visual injury rating after approximately 10 d, read-out: Ragweed plant response rating (0 to 100 scale, 0 is no effect, 100 is complete control); for pest or weed control at 500 g/ha: 500 g ai/ha, preemergence, visual injury rating about 10 d after treatment, 0 to 100 scale (0 no effect, 100 complete control), read-out: Ragweed plant response rating
In short: as §1

[17] = tested on: giant foxtail (Setaria faberii); assay: Test A preemergence; conditions: Setaria faberi, pre-emergence, 240 h; for pest or weed control at 125 g/ha: 125 g ai/ha, Preemergence, visual injury rating after approximately 10 d, read-out: Foxtail, Giant plant response rating (0 to 100 scale, 0 is no effect, 100 is complete control); for pest or weed control at 500 g/ha: 500 g ai/ha, preemergence, visual injury rating about 10 d after treatment, 0 to 100 scale (0 no effect, 100 complete control), read-out: Foxtail, Giant plant response rating
In short: as §1

[18] = tested on: ryegrass, Italian (Italian ryegrass, Lolium multiflorum); assay: Test A preemergence; conditions: Lolium multiflorum, pre-emergence, 240 h; for pest or weed control at 125 g/ha: 125 g ai/ha, Preemergence, visual injury rating after approximately 10 d, read-out: Ryegrass, Italian plant response rating (0 to 100 scale, 0 is no effect, 100 is complete control); for pest or weed control at 500 g/ha: 500 g ai/ha, preemergence, visual injury rating about 10 d after treatment, 0 to 100 scale (0 no effect, 100 complete control), read-out: Ryegrass, Italian plant response rating
In short: as §1

Compound | pest or weed control at 125 g/ha [1] [%] | pest or weed control at 500 g/ha [1] [%] | pest or weed control at 125 g/ha [2] [%] | pest or weed control at 500 g/ha [2] [%] | pest or weed control at 125 g/ha (Kochia (Kochia scoparia) [3]) [%] | pest or weed control at 500 g/ha (Kochia (Kochia scoparia) [3]) [%] | pest or weed control at 125 g/ha [4] [%] | pest or weed control at 500 g/ha [4] [%] | pest or weed control at 125 g/ha [5] [%] | pest or weed control at 500 g/ha [5] [%] | pest or weed control at 125 g/ha [6] [%] | pest or weed control at 500 g/ha [6] [%] | plant injury at 125 g/ha [7] [%] | plant injury at 500 g/ha [7] [%] | Corn plant response rating (crop injury, 0 = no effect, 100 = complete kill) at 125 g/ha (corn (Zea mays)) [%] | Corn plant response rating (crop injury, 0 = no effect, 100 = complete kill) at 500 g/ha (corn (Zea mays)) [%] | pest or weed control at 125 g/ha [8] [%] | pest or weed control at 500 g/ha [8] [%] | pest or weed control at 125 g/ha [9] [%] | pest or weed control at 500 g/ha [9] [%] | other results
CN1CC[C@H](c2ccc(OC(F)(F)F)cc2)[C@@H](C(=O)Nc2ccc(F)c(F)c2F)C1=O [Compound 1000] | 60 | 100 | 0 | 0 | 40 | 40 | 0 | 0 | 0 | 0 | 0 | 0 | 0 | 0 | 0 | 20 | 0 | 50 | 0 | 0 | pest or weed control at 250 g/ha [10]: 0%; pest or weed control at 250 g/ha [11]: 90%; pest or weed control at 250 g/ha (rice (Oryra sativa)): 0%; pest or weed control at 250 g/ha [12]: 0%; pest or weed control at 125 g/ha [13]: 0%; pest or weed control at 500 g/ha [13]: 60%; pest or weed control at 125 g/ha (Kochia (Kochia scoparia) [14]): 0%; pest or weed control at 500 g/ha (Kochia (Kochia scoparia) [14]): 0%; pest or weed control at 125 g/ha [15]: 20%; pest or weed control at 500 g/ha [15]: 40%; pest or weed control at 125 g/ha [16]: 0%; pest or weed control at 500 g/ha [16]: 0%; pest or weed control at 125 g/ha [17]: 70%; pest or weed control at 500 g/ha [17]: 90%; pest or weed control at 125 g/ha [18]: 0%; pest or weed control at 500 g/ha [18]: 20%
Cc1ccc([C@H]2CN(C)C(=O)[C@@H]2C(=O)Nc2ccccc2S(C)(=O)=O)cc1Cl [Compound 1018] | 90 | 90 | 30 | 60 | 30 | 50 | 30 | 60 | 0 | 50 | 0 | 30 | 30 | 50 | 70 | 90 | 90 | 90 | 30 | 60 | pest or weed control at 250 g/ha [10]: 65%; pest or weed control at 250 g/ha [11]: 90%; pest or weed control at 250 g/ha (rice (Oryra sativa)): 0%; pest or weed control at 250 g/ha [12]: 0%; pest or weed control at 125 g/ha [13]: 90%; pest or weed control at 500 g/ha [13]: 90%; pest or weed control at 125 g/ha (Kochia (Kochia scoparia) [14]): 0%; pest or weed control at 500 g/ha (Kochia (Kochia scoparia) [14]): 60%; pest or weed control at 125 g/ha [15]: 30%; pest or weed control at 500 g/ha [15]: 80%; pest or weed control at 125 g/ha [16]: 0%; pest or weed control at 500 g/ha [16]: 40%; pest or weed control at 125 g/ha [17]: 90%; pest or weed control at 500 g/ha [17]: 90%; pest or weed control at 125 g/ha [18]: 0%; pest or weed control at 500 g/ha [18]: 70%
